These are literature values, as cited in patent US20240091141A1, “METHODS AND COMPOSITIONS FOR THE ABLATION OF NERVES” (TULAVI THERAPEUTICS, INC., priority 2021, published 2024).

Some results are limits rather than exact numbers.

One data set has as its system a range of cell types. To be noted: across a range of cell types.
The test system of data set [1] is sympathetic, sensory and motor neurons.
The next data set has as its system sympathetic ganglia cell. The following applies: in vitro; 4 ug/ml (10 uM).
For data set [2] the following is noted: meta-analysis covering over 12,000 patients.

Consider `C[C@H](CCCC(C)(C)O)[C@H]1CC[C@H]2[C@@H]3CC=C4C[C@@H](O)CC[C@]4(C)[C@H]3CC[C@]12C` [25-OH-cholesterol], for which, in the data set with a range of cell types, the neurotoxicity result is on record as “demonstrated neurotoxicity”. Regarding `CCO` [ethanol], the “concentrations that result in neurolysis” value in data set [1] is listed as “above 50%”. In addition, the destruction of neurons result in data set [1] (One-hundred percent ethanol) was “completely destroy the cell bodies and axons”. As to Cholesterol oxides, in the data set on sympathetic ganglia cell, the “time to sympathetic ganglia cell death” value is at most 36 h. As for hyaluronic acid, the “effect of intraarticular injections” value in data set [2] was “either no effect or a “clinically irrelevant effect””.
